Assay results taken from PMC7607171, “Optimized low‐dose combinatorial drug treatment boosts selectivity and efficacy of colorectal carcinoma treatment” (Molecular Oncology, 2020).
“And” between values parts separate entries of the source, which are not always exact repeats. Equal entries are not always repeated. Where two headings read alike, the source gives them in different places.

Key:
[1] = test system: DLD1 tumors; assay: Subcutaneous xenograft tumor growth; format: in vivo, Swiss nu/nu mice
Procedure: All procedures including animal use were performed in accordance with the Institutional Ethical Committee of Animal Care in Geneva and the Swiss Cantonal Veterinary Office (Authorization number GE‐136‐19). Briefly, female and male Swiss nu/nu mice aged 6–8 weeks were obtained from Charles River (Écully, France). For subcutaneous xenografts mice were inoculated in the left flank with 5x10^6 DLD1 or SW620 cells suspended in 100 µL of cell culture medium, supplemented with 1% FBS.
Drugs were administered through oral gavage based on average body weight of the males (100 µL/mouse) and females (80 µL/mouse) at various concentrations, see Tables S10 and S11.
Solution A: step (1) 30% PEG 400 + 5% propylene glycol + 0.5% Tween 80 and (2) 64.5% sterile H2O. Solution B: step (1) 10% DMSO, (2) 30% PEG 300 + 5% Tween 80 and (3) 55% sterile H2O. […] FOLFOX was administered as 6 mg/kg oxaliplatin two hours before administration of 90 mg/kg leucovorin and 50 mg/kg (DLD1) or 25 mg/kg (SW620) 5‐fluorouracil at day 1 and a repeat of 5‐fluorouracil dosing on day 2.
The Bliss independence model can be used to evaluate the drug interaction potential of a drug mixture. […] The model is based on the probability theory and requires the drug activity of each drug at the selected dose to predict the inhibition rate (IR) at additive doses.

[2] = Pharmacokinetics, dried blood spot LC-MS/MS, mice with DLD1 tumors; format: in vivo; details: for Tmax / AUC(0-t) / Cmax: Swiss Nu/nu, mouse, whole blood (dried blood spot), po, regorafenib 15, erlotinib 12.5, selumetinib 5, vemurafenib 75 mg/kg; for AUC(0-t) / Cmax: whole blood, mean ± SD; for AUC(0-t): oral, read-out: AUC0-24h; for increase of AUC as part of the ODC vs single-drug treatment: mice with DLD1 tumors, AUC0-24h
Procedure: The pharmacokinetic (PK) study was performed using the dried blood spot method. Mice were treated with CTRL, ODCs, and corresponding monotherapies as described above. To determine the disposition in blood in the first 24h, blood samples (5 µL/mouse) were collected from the tail vein (n = 4 mice) at 2h, 4h, 8h, and 24h time points and transferred onto paper (a filter paper 903 protein saver card from Whatman (MA, USA)). A disk with the entire spot was punched from the paper card and transferred to the HPLC vial tube. Hundred µL of MeOH containing a mix of internal standards was added, and the tube was vortex‐mixed for about 1 min before injecting 10 µL into the LC‐MS/MS system. The LC‐MS/MS system consisted of an API 4,000 triple quadrupole mass spectrometer (AB sciex, Concord, ON, Canada) controlled by analyst 1.6.1 software. The mass spectrometer was operated in the multiple reaction monitoring (MRM) mode with positive electrospray ionization. The instrument was coupled with an Agilent series 1100 (Waldbronn, Germany) LC system. Chromatography was performed on a Phenomenex Kinetex C18 analytical column (50 mm x 2.1 mm, 2.6 um; Torrance, CA, USA). The flow rate was 0.5 mL/min using gradient elution conditions. The method was fully validated before application to this pharmacokinetic study.

[3] = Clinical plasma pharmacokinetics in patients, plasma concentration limit calculation; format: in vivo; details: average plasma concentration calculated from AUC0-24h in patients
Procedure: To select for clinically relevant doses, the clinically attainable drug concentration measured in the blood plasma of patients after treatment is used to calculate the concentration limit for in vitro experiments. […] The average drug concentration is calculated from the AUC0–24h and is implemented as the plasma concentration limit (PCL) which drug dose selection must remain below for in vitro experiments. If a drug is FDA approved, the AUC0–24h selected is the one corresponding to the recommended dose in clinical practice. If a drug is in clinical trials, the AUC0–24h selected is the one corresponding to the maximum tolerated dose in early stage clinical trials. Note, experiments were conducted with the most current PCL calculated from the AUC0–24h information available at the start of experiments (December 2017), see Table S4.

[4] = 0-24h, oral, cited from earlier work
[5] = Serum and intratumor drug concentration at experimental endpoint, SW620 model; format: in vivo, mice; details: for concentration at 1 h / Kp at 1 h: Swiss Nu/nu, mouse, oral; for concentration at 1 h: 1h post-treatment at endpoint (day 19); for Kp at 1 h: tumor vs serum, read-out: ratio tumor vs serum; for Kp at 1 h / ratio ODC vs single drug: SW620 model
Procedure: At the experimental endpoint, plasma and tumors were collected 1h post‐treatment and part of the tumor tissue was used to determine the intratumor drug concentrations. Plasma and tumor samples were analyzed using the same LC‐MS/MS method used for drug determination in DBS. Before analysis, tumor tissues were homogenized in a 1 mL mixture of water/acetonitrile (30/70). Hundred uL of homogenates were transferred into new tubes and 50 µL of acetonitrile, as well as 50 µL of a mix of internal standards in MeOH were added. Tubes were vortexed and centrifuged for 10 min at 9,000 rpm. The supernatant (100 µL) was evaporated under nitrogen and reconstituted in 100 µL of acetonitrile with 0.1% formic acid/water with 0.1% formic acid (30/70). 10 µL was then injected into the LC‐MS/MS system. Plasma samples were spotted onto the same paper used for whole blood analysis and were extracted and analyzed using the same methods as used for DBS.

[6] = regorafenib 15 mg/kg, Exp 5, Day 16
[7] = regorafenib 30 mg/kg, Exp 2, Day 14
[8] = regorafenib 30 mg/kg, Exp 5, Day 16
[9] = regorafenib 50 mg/kg, Exp 3, Day 13
[10] = given as part of DLD1-specific ODC
[11] = serum, as part of ODC, regorafenib 30, selumetinib 0.2, vemurafenib 75, GDC-0994 10 mg/kg, read-out: concentration serum
[12] = serum, single drug, regorafenib 30, selumetinib 0.2, vemurafenib 75, GDC-0994 10 mg/kg, read-out: concentration serum
[13] = tumor (SW620), as part of ODC, SW620 tumor, doses as E164, read-out: concentration tumor
[14] = tumor (SW620), single drug, SW620 tumor, doses as E164, read-out: concentration tumor
[15] = selumetinib 1 mg/kg, Exp 6, Day 18
[16] = selumetinib 5 mg/kg, Exp 5, Day 16
[17] = selumetinib 5 mg/kg, Exp 7, Day 25
[18] = selumetinib 10 mg/kg, Exp 5, Day 16
[19] = selumetinib 25 mg/kg, Exp 3, Day 13
[20] = vemurafenib 25 mg/kg, Exp 2, Day 14
[21] = vemurafenib 75 mg/kg b.i.d., Exp 3, Day 13
[22] = vemurafenib 75 mg/kg, Exp 2, Day 14
[23] = vemurafenib 75 mg/kg, Exp 5, Day 16
[24] = vemurafenib 75 mg/kg, Exp 7, Day 15
[25] = vemurafenib 150 mg/kg b.i.d., Exp 4, Day 16

Compound | Tmax [2, 10] [h] | AUC(0-t) [2, 10] [ng·h/mL] | Cmax [2, 10] [ng/mL] | Tmax ([2]; mono) [h] | AUC(0-t) ([2]; mono) [ng·h/mL] | Cmax ([2]; mono) [ng/mL] | increase of AUC as part of the ODC vs single-drug treatment [2] [x] | PCL (plasma concentration limit) [3] | concentration at 1 h [5, 11] [ng/mL] | concentration at 1 h [5, 12] [ng/mL] | concentration at 1 h [5, 13] [ng/g] | concentration at 1 h [5, 14] [ng/g] | Kp at 1 h ([5]; as part of ODC) | Kp at 1 h ([5]; single drug) | ratio ODC vs single drug ([5]; serum) | ratio ODC vs single drug ([5]; tumor) | also measured
CNC(=O)c1cc(Oc2ccc(NC(=O)Nc3ccc(Cl)c(C(F)(F)F)c3)c(F)c2)ccn1 [regorafenib] | 4 | 49400 ± 2980 | 3380 ± 490 | 8 | 17500 ± 5790 | 1190 ± 690 | 2.8 | 4.34 µM and 4.3 µM | 6600 ± 2800 | 2220 ± 70 | 1820 ± 770 | 1330 ± 230 | 0.28 | 0.6 | 2.97 | 1.37 | % CTRL (tumor volume) [1, 6]: 87 75 34 % CTRL; Volume [1, 6]: 559 479 214 mm^3; % CTRL (tumor volume) ([1]; regorafenib 15 mg/kg, Exp 7, Day 15): 96 24 38 % CTRL; % CTRL (tumor volume) [1, 7]: 85 46 20 % CTRL; Volume [1, 7]: 594 320 143 mm^3; % CTRL (tumor volume) [1, 8]: 63 56 25 % CTRL; Volume [1, 8]: 404 358 160 mm^3; % CTRL (tumor volume) [1, 9]: 135 76 29 % CTRL; Volume [1, 9]: 465 261 99 mm^3; AUC ([4]; 160 mg/kg, 3 wk on/ 1 wk off, ref 12): 50260 ng·h/mL; AUC ([4]; 160 mg/kg, 3 wk on/ 1 wk off, ref 13): 58300 ng·h/mL
Cn1cnc2c(F)c(Nc3ccc(Br)cc3Cl)c(C(=O)NOCCO)cc21 [selumetinib] | 2 | 24800 ± 8250 | 3830 ± 1640 | 2 | 15200 ± 7590 | 1220 ± 330 | 1.6 | 0.60 µM and 0.6 µM | 280 ± 200 | 410 ± 350 | 220 ± 100 | 560 ± 90 | 0.77 | 1.39 |  |  | % CTRL (tumor volume) [1, 15]: 74 29 12 % CTRL; Volume [1, 15]: 366 142 58 mm^3; % CTRL (tumor volume) [1, 16]: 37 39 20 % CTRL; Volume [1, 16]: 237 234 125 mm^3; % CTRL (tumor volume) [1, 17]: 67 50 25 % CTRL; Volume [1, 17]: 408 223 79 mm^3; % CTRL (tumor volume) ([1]; selumetinib 10 mg/kg, Exp 4, Day 16): 82 49 22 % CTRL; % CTRL (tumor volume) [1, 18]: 33 18 8 % CTRL; Volume [1, 18]: 213 117 52 mm^3; % CTRL (tumor volume) [1, 19]: 49 33 13 % CTRL; Volume [1, 19]: 168 112 46 mm^3; % CTRL (tumor volume) ([1]; selumetinib 50 mg/kg, Exp 2, Day 14): 39 16 7 % CTRL
CCCS(=O)(=O)Nc1ccc(F)c(C(=O)c2c[nH]c3ncc(-c4ccc(Cl)cc4)cc23)c1F [vemurafenib] | 4 | 14400 ± 2740 | 1050 ± 360 | 2 | 2180 ± 220 | 270 ± 80 | 6.6 | 11.1 µM | 1770 ± 770 | 1960 ± 1050 | 890 ± 530 |  | 0.5 | 0.48 | 0.90 | 0.95 | % CTRL (tumor volume) [1, 20]: 80 33 19 % CTRL; Volume [1, 20]: 562 231 133 mm^3; % CTRL (tumor volume) [1, 21]: 113 88 39 % CTRL; Volume [1, 21]: 388 304 136 mm^3; % CTRL (tumor volume) [1, 22]: 87 46 23 % CTRL; Volume [1, 22]: 612 319 160 mm^3; % CTRL (tumor volume) [1, 23]: 94 31 14 % CTRL; Volume [1, 23]: 600 200 89 mm^3; % CTRL (tumor volume) [1, 24]: 123 69 24 % CTRL; Volume [1, 24]: 619 347 123 mm^3; % CTRL (tumor volume) [1, 25]: 105 64 28 % CTRL; Volume [1, 25]: 587 354 159 mm^3; AUC ([4]; 960 mg/kg twice daily): 131000 ng·h/mL; AUC ([4]; 960 mg/kg twice daily, ref EPAR 002409): 21100 ng·h/mL
